{"source": "patent US7927789B1", "about": "“Self-referencing biodetection method and patterned bioassays” (SRU Biosystems, Inc., priority 2002, dated 2011)", "tested_on": "gelatin", "assay": "Collagenase cleavage of patterned gelatin on biosensor, BIND imaging", "assay_type": "biochemical", "settings": "1.5 mg/ml collagenase; gelatin versus regions without gelatin (rabbit IgG)", "description": "A pattern of gelatin (1 mg/ml, Sigma) was applied to a biosensor with a micropipette tip in the shape of the letters “SRU.” The gelatin was allowed to incubate on the biosensor surface for about 60 minutes before a thorough rinse with water. Next, the entire biosensor surface was exposed to a 1 mg/ml solution of rabbit IgG (Sigma) that attached a uniform thin layer of protein across the biosensor so that the peak wavelength value of the biosensor would be roughly equivalent in all locations. After a second rinse in water, the entire biosensor was exposed to a 1.5 mg/ml solution of collagenase, a specific binding partner, for about 80 minutes. The collagenase is an enzyme that selectively cleaves gelatin, thus selectively removing protein from the surface only in regions where the gelatin was applied. […] As a consequence of this selective interaction, an image is measured where the word “SRU” appears as a region with lower peak wavelength value compared to surrounding regions, as shown in FIG. 10.", "note": "“Also recorded” adds a separate entry of the source.", "data": [{"substance": "collagenase", "values": [{"measurement": "peak wavelength value change in gelatin regions after collagenase", "value": "peak wavelength value in the gelatin regions is reduced relative to the regions without gelatin; also recorded: peak wavelength value in the gelatin reaction surfaces is reduced relative to the reference surfaces without gelatin"}]}]}
